System: MV-4-11 cells
Test: Gene expression microarray analysis (Affymetrix PrimeView) and GSEA
Type: cell-based, human
Set-up: RFU PODN (11730768_x_at) / Fold change /veh PODN (11730768_x_at) / RFU LINC00158 (11744669_a_at) / Fold change /veh LINC00158 (11744669_a_at) / RFU DUSP10 (11751237_a_at) / Fold change /veh DUSP10 (11751237_a_at) / RFU ID3 (11757404_x_at) / Fold change /veh ID3 (11757404_x_at) / RFU PLEKHG5 (11737974_s_at) / Fold change /veh PLEKHG5 (11737974_s_at) / RFU LRRC4B (11730491_at) / Fold change /veh LRRC4B (11730491_at) / RFU GIMAP4 (11747438_a_at) / Fold change /veh GIMAP4 (11747438_a_at) / RFU KRT8 (11758183_x_at) / Fold change /veh KRT8 (11758183_x_at) / RFU CNN1 (11734310_a_at) / Fold change /veh CNN1 (11734310_a_at) / RFU VPS37D (11726825_at) / Fold change /veh VPS37D (11726825_at) / RFU C10orf10 (11716522_x_at) / Fold change /veh C10orf10 (11716522_x_at) / RFU KIR2DL2 /// KIR2DL4 /// KIR2DL5A /// KIR2DL5B /// KIR2DS1 /// KIR2DS2 /// KIR2DS3 /// KIR2DS4 /// KIR3DL3 /// KIR3DL3 /// KIR3DS1 (11738374_at) / Fold change /veh KIR2DL2 /// KIR2DL4 /// KIR2DL5A /// KIR2DL5B /// KIR2DS1 /// KIR2DS2 /// KIR2DS3 /// KIR2DS4 /// KIR3DL3 /// KIR3DL3 /// KIR3DS1 (11738374_at) / RFU C1QL1 (11718748_at) / Fold change /veh C1QL1 (11718748_at) / RFU TMPRSS4 (11747572_a_at) / Fold change /veh TMPRSS4 (11747572_a_at) / RFU HAMP (11756126_x_at) / Fold change /veh HAMP (11756126_x_at) / RFU RNFT2 (11725882_a_at) / Fold change /veh RNFT2 (11725882_a_at) / RFU NR4A2 (11747474_a_at) / Fold change /veh NR4A2 (11747474_a_at) / RFU ABCC12 (11746883_a_at) / Fold change /veh ABCC12 (11746883_a_at) / RFU TMEM136 (11760407_x_at) / Fold change /veh TMEM136 (11760407_x_at) / RFU CLDN22 /// WWC2 (11732394_at) / Fold change /veh CLDN22 /// WWC2 (11732394_at) / RFU HLA-DPB1 (11760878_x_at) / Fold change /veh HLA-DPB1 (11760878_x_at) / RFU SPINT1 (11716480_a_at) / Fold change /veh SPINT1 (11716480_a_at) / RFU GAP43 (11754022_s_at) / Fold change /veh GAP43 (11754022_s_at) / RFU A4GNT (11735810_at) / Fold change /veh A4GNT (11735810_at) / RFU PRB3 (11715151_x_at) / Fold change /veh PRB3 (11715151_x_at) / RFU TUBB4B (11761932_at) / Fold change /veh TUBB4B (11761932_at) / RFU CAPN14 (11732068_a_at) / Fold change /veh CAPN14 (11732068_a_at) / RFU TMCC2 (11721928_a_at) / Fold change /veh TMCC2 (11721928_a_at) / RFU IRGQ (11745062_a_at) / Fold change /veh IRGQ (11745062_a_at) / RFU FAM174B (11720279_a_at) / Fold change /veh FAM174B (11720279_a_at) / RFU TMPRSS4 (11748680_a_at) / Fold change /veh TMPRSS4 (11748680_a_at) / RFU FAM212B (11763350_a_at) / Fold change /veh FAM212B (11763350_a_at) / RFU PLEKHG5 (11743358_a_at) / Fold change /veh PLEKHG5 (11743358_a_at) / RFU ZSCAN30 (11745921_a_at) / Fold change /veh ZSCAN30 (11745921_a_at) / RFU CMKLR1 (11741424_a_at) / Fold change /veh CMKLR1 (11741424_a_at) / RFU LOC101060620 /// MAPK8IP1 (11723275_at) / Fold change /veh LOC101060620 /// MAPK8IP1 (11723275_at) / RFU SPTSSB (11747773_x_at) / Fold change /veh SPTSSB (11747773_x_at) / RFU PRSS12 (11739890_at) / Fold change /veh PRSS12 (11739890_at) / RFU BIN1 (11741810_x_at) / Fold change /veh BIN1 (11741810_x_at) / RFU WNT11 (11732464_a_at) / Fold change /veh WNT11 (11732464_a_at) / RFU C10orf10 (11716521_a_at) / Fold change /veh C10orf10 (11716521_a_at) / RFU C5orf56 (11738089_at) / Fold change /veh C5orf56 (11738089_at) / RFU CYB561 (11721691_x_at) / Fold change /veh CYB561 (11721691_x_at) / RFU ANKRD19P (11752326_a_at) / Fold change /veh ANKRD19P (11752326_a_at) / RFU OR2T12 /// OR2T33 /// OR2T8 (11738714_s_at) / Fold change /veh OR2T12 /// OR2T33 /// OR2T8 (11738714_s_at) / RFU VCAN (11748164_a_at) / Fold change /veh VCAN (11748164_a_at) / RFU JSRP1 (11732532_at) / Fold change /veh JSRP1 (11732532_at) / RFU KRTAP10-11 (11738290_x_at) / Fold change /veh KRTAP10-11 (11738290_x_at) / RFU MYO3A (11730013_a_at) / Fold change /veh MYO3A (11730013_a_at) / RFU EBF3 (11725865_a_at) / Fold change /veh EBF3 (11725865_a_at) / RFU CAMK2N1 (11719241_x_at) / Fold change /veh CAMK2N1 (11719241_x_at) / RFU C5orf56 (11738088_a_at) / Fold change /veh C5orf56 (11738088_a_at) / RFU OLFML3 (11715873_a_at) / Fold change /veh OLFML3 (11715873_a_at) / RFU LOC100653217 /// NTM (11731650_a_at) / Fold change /veh LOC100653217 /// NTM (11731650_a_at) / RFU MAPK11 (11762145_a_at) / Fold change /veh MAPK11 (11762145_a_at) / RFU FIZ1 (11724087_x_at) / Fold change /veh FIZ1 (11724087_x_at) / RFU OASL (11726364_x_at) / Fold change /veh OASL (11726364_x_at) / RFU SOX15 (11748057_x_at) / Fold change /veh SOX15 (11748057_x_at) / RFU CD79A (11719716_a_at) / Fold change /veh CD79A (11719716_a_at) / RFU HIST1H1D (11736915_at) / Fold change /veh HIST1H1D (11736915_at) / RFU CASKIN2 (11723855_a_at) / Fold change /veh CASKIN2 (11723855_a_at) / RFU LOC730098 (11760151_x_at) / Fold change /veh LOC730098 (11760151_x_at) / RFU OR4N2 (11742367_at) / Fold change /veh OR4N2 (11742367_at) / RFU PRRT2 (11749266_a_at) / Fold change /veh PRRT2 (11749266_a_at) / RFU SNX32 (11753110_a_at) / Fold change /veh SNX32 (11753110_a_at) / RFU CDHR5 (11726645_a_at) / Fold change /veh CDHR5 (11726645_a_at) / RFU RCAN1 (11760418_a_at) / Fold change /veh RCAN1 (11760418_a_at) / RFU FAM167A (11723789_a_at) / Fold change /veh FAM167A (11723789_a_at) / RFU FAM26E (11764081_at) / Fold change /veh FAM26E (11764081_at) / RFU ISYNA1 (11749810_s_at) / Fold change /veh ISYNA1 (11749810_s_at) / RFU ACY1 (11761880_at) / Fold change /veh ACY1 (11761880_at) / RFU 11764098_at / Fold change /veh 11764098_at / RFU SAMD14 (11745864_x_at) / Fold change /veh SAMD14 (11745864_x_at) / RFU NPB (11741838_a_at) / Fold change /veh NPB (11741838_a_at) / RFU TMPRSS6 (11731388_a_at) / Fold change /veh TMPRSS6 (11731388_a_at) / RFU KRTAP10-2 (11738614_at) / Fold change /veh KRTAP10-2 (11738614_at) / RFU ARHGAP8 /// PRR5-ARHGAP8 (11727945_x_at) / Fold change /veh ARHGAP8 /// PRR5-ARHGAP8 (11727945_x_at) / RFU KRTAP5-7 /// NADSYN1 (11734609_at) / Fold change /veh KRTAP5-7 /// NADSYN1 (11734609_at) / RFU RASL12 (11751679_a_at) / Fold change /veh RASL12 (11751679_a_at) / RFU CDKN2B (11736163_a_at) / Fold change /veh CDKN2B (11736163_a_at) / RFU PRF1 (11729649_at) / Fold change /veh PRF1 (11729649_at) / RFU, ZNF638 /// ZNF638-IT1 / Fold change vs veh, ZNF638 /// ZNF638-IT1 / RFU, PANK3 / Fold change vs veh, PANK3 / RFU, SH3YL1 / Fold change vs veh, SH3YL1 / RFU, ZEB2 / Fold change vs veh, ZEB2 / RFU, NRIP1 / Fold change vs veh, NRIP1 / RFU, PTTG1IP / Fold change vs veh, PTTG1IP / RFU, CAPN2 / Fold change vs veh, CAPN2 / RFU, MED14 / Fold change vs veh, MED14 / RFU, SNORA58 / Fold change vs veh, SNORA58 / RFU, C1orf63 / Fold change vs veh, C1orf63 / RFU, LRRFIP1 / Fold change vs veh, LRRFIP1 / RFU, NDUFAF7 / Fold change vs veh, NDUFAF7 / RFU, SLC12A2 / Fold change vs veh, SLC12A2 / RFU, IBTK / Fold change vs veh, IBTK / RFU, ESF1 / Fold change vs veh, ESF1 / Fold change vs veh, TMEM50B / RFU, TAOK1 / Fold change vs veh, TAOK1 / RFU, ACBD3 / Fold change vs veh, ACBD3 / RFU, TMA16 / Fold change vs veh, TMA16 / RFU, RWDD3 / Fold change vs veh, RWDD3 / RFU, BCAT1 / Fold change vs veh, BCAT1 / RFU, EDEM3 / Fold change vs veh, EDEM3 / RFU, TMEM33 / Fold change vs veh, TMEM33 / RFU, WDR75 / Fold change vs veh, WDR75 / RFU, AHCTF1 / Fold change vs veh, AHCTF1 / RFU, TFRC / Fold change vs veh, TFRC / RFU, ZDHHC17 / Fold change vs veh, ZDHHC17 / RFU, NOM1 / Fold change vs veh, NOM1 / RFU, ARL8B / Fold change vs veh, ARL8B / RFU, ZBTB11 / Fold change vs veh, ZBTB11 / RFU, TAMM41 / Fold change vs veh, TAMM41 / RFU, KIAA1704 /// LOC100996395 / Fold change vs veh, KIAA1704 /// LOC100996395 / RFU, ING1 / Fold change vs veh, ING1 / RFU, TRMT61B / Fold change vs veh, TRMT61B / RFU, FUBP3 / Fold change vs veh, FUBP3 / RFU, TP53 / Fold change vs veh, TP53 / RFU, TNKS2 / Fold change vs veh, TNKS2 / RFU, ZFP14 / Fold change vs veh, ZFP14 / RFU, ACTR2 / Fold change vs veh, ACTR2 / RFU, PPP3R1 / Fold change vs veh, PPP3R1 / RFU, PIK3R1 / Fold change vs veh, PIK3R1 / RFU, HNRNPA1 / Fold change vs veh, HNRNPA1 / RFU, RNF170 / Fold change vs veh, RNF170 / RFU, ZNF28 / Fold change vs veh, ZNF28 / RFU, RNGTT / Fold change vs veh, RNGTT / RFU, OGT / Fold change vs veh, OGT / RFU, BRD1 / Fold change vs veh, BRD1 / RFU, MARS / Fold change vs veh, MARS / RFU, ZNF655 / Fold change vs veh, ZNF655 / RFU, FAHD1 / Fold change vs veh, FAHD1 / RFU, BDP1 / Fold change vs veh, BDP1 / RFU, LRRCC1 / Fold change vs veh, LRRCC1 / RFU, ARID1A / Fold change vs veh, ARID1A / RFU, ZNF146 / Fold change vs veh, ZNF146 / RFU, ZNF330 / Fold change vs veh, ZNF330 / RFU, GPN3 / Fold change vs veh, GPN3 / RFU, C9orf123 / Fold change vs veh, C9orf123 / RFU, N4BP2L2 / Fold change vs veh, N4BP2L2 / RFU, ARFIP1 / Fold change vs veh, ARFIP1 / RFU, FAM179B / Fold change vs veh, FAM179B / RFU, BCL10 / Fold change vs veh, BCL10 / RFU, UHRF1BP1L / Fold change vs veh, UHRF1BP1L / RFU, BET1 / Fold change vs veh, BET1 / RFU, CNOT2 / Fold change vs veh, CNOT2 / RFU, ZNF268 / Fold change vs veh, ZNF268 / Fold change vs veh, ZNF507 / RFU, DGCR2 / Fold change vs veh, DGCR2 / RFU, WDSUB1 / Fold change vs veh, WDSUB1 / Fold change vs veh, HSP90B1 /// MIR3652 / RFU, ADSS / Fold change vs veh, ADSS / RFU, GK / Fold change vs veh, GK / RFU, ZNF148 / Fold change vs veh, ZNF148 / RFU, TAF9 / Fold change vs veh, TAF9 / RFU, SLC1A5 / Fold change vs veh, SLC1A5 / RFU, SLMO2 / Fold change vs veh, SLMO2 / RFU, ABCC4 / Fold change vs veh, ABCC4 / RFU, LOC101060439 /// RAP1B / Fold change vs veh, LOC101060439 /// RAP1B / RFU, RFX7 / Fold change vs veh, RFX7 / RFU, GTPBP10 / Fold change vs veh, GTPBP10 / RFU, CNEP1R1 / Fold change vs veh, CNEP1R1 / RFU, BIVM-ERCC5 /// ERCC5 / Fold change vs veh, BIVM-ERCC5 /// ERCC5 / RFU, ILF3 / Fold change vs veh, ILF3 / RFU 11762660_at / Fold change /veh 11762660_at / RFU VCAN (11757783_s_at) / Fold change /veh VCAN (11757783_s_at) / RFU DDX43 (11728927_at) / Fold change /veh DDX43 (11728927_at) / RFU KRT8 (11758188_x_at) / Fold change /veh KRT8 (11758188_x_at) / RFU NKD1 (11759106_at) / Fold change /veh NKD1 (11759106_at) / RFU SRD5A1 (11742802_a_at) / Fold change /veh SRD5A1 (11742802_a_at) / RFU TPSAB1 /// TPSB2 (11721975_s_at) / Fold change /veh TPSAB1 /// TPSB2 (11721975_s_at) / RFU GSTM3 (11746129_a_at) / Fold change /veh GSTM3 (11746129_a_at) / RFU IL23R (11737362_x_at) / Fold change /veh IL23R (11737362_x_at) / RFU TMEM51 (11727254_a_at) / Fold change /veh TMEM51 (11727254_a_at) / RFU PIWIL2 (11732686_x_at) / Fold change /veh PIWIL2 (11732686_x_at) / RFU ORM1 (11744905_x_at) / Fold change /veh ORM1 (11744905_x_at) / RFU CCDC152 (11743942_at) / Fold change /veh CCDC152 (11743942_at) / RFU ECM1 (11717891_a_at) / Fold change /veh ECM1 (11717891_a_at) / RFU IL23R (11748794_a_at) / Fold change /veh IL23R (11748794_a_at) / RFU TNFAIP8L3 (11732012_x_at) / Fold change /veh TNFAIP8L3 (11732012_x_at) / RFU MBOAT4 (11741988_at) / Fold change /veh MBOAT4 (11741988_at) / RFU 11764193_at / Fold change /veh 11764193_at / RFU TMEM53 (11763286_at) / Fold change /veh TMEM53 (11763286_at) / RFU MAGEB2 (11727129_at) / Fold change /veh MAGEB2 (11727129_at) / RFU TMEM200A (11744735_a_at) / Fold change /veh TMEM200A (11744735_a_at) / RFU CCDC152 (11751479_a_at) / Fold change /veh CCDC152 (11751479_a_at) / RFU FAM211A (11726209_a_at) / Fold change /veh FAM211A (11726209_a_at) / RFU RGS16 (11746705_a_at) / Fold change /veh RGS16 (11746705_a_at) / RFU VCAN (11755009_s_at) / Fold change /veh VCAN (11755009_s_at) / RFU RHOB (11743442_s_at) / Fold change /veh RHOB (11743442_s_at) / RFU RGS16 (11720943_a_at) / Fold change /veh RGS16 (11720943_a_at) / RFU RGS16 (11720944_at) / Fold change /veh RGS16 (11720944_at) / RFU, VPS4B / Fold change vs veh, VPS4B / RFU, CREB1 / Fold change vs veh, CREB1 / RFU, DNAJC13 / Fold change vs veh, DNAJC13 / RFU, GNAQ / Fold change vs veh, GNAQ / RFU, CDK5R1 / Fold change vs veh, CDK5R1 / RFU, ZRANB3 / Fold change vs veh, ZRANB3 / RFU, CUL4A / Fold change vs veh, CUL4A / RFU, CCNY / Fold change vs veh, CCNY / RFU, UFL1 / Fold change vs veh, UFL1 / RFU, COG3 / Fold change vs veh, COG3 / RFU, DIAPH2 / Fold change vs veh, DIAPH2 / RFU, SKA2 / Fold change vs veh, SKA2 / RFU, AFF3 / Fold change vs veh, AFF3 / RFU, LMF1 / Fold change vs veh, LMF1 / RFU, IPO11 / Fold change vs veh, IPO11 / RFU, DFFB / Fold change vs veh, DFFB / RFU, FOXP1 / Fold change vs veh, FOXP1 / RFU, CARD8 / Fold change vs veh, CARD8 / RFU, STRN3 / Fold change vs veh, STRN3 / RFU, ADK / Fold change vs veh, ADK / RFU, RASSF2 / Fold change vs veh, RASSF2 / RFU, WIPF1 / Fold change vs veh, WIPF1 / RFU, LARP1B / Fold change vs veh, LARP1B / RFU, RASA1 / Fold change vs veh, RASA1 / RFU, RB1 / Fold change vs veh, RB1 / RFU, PPFIA1 / Fold change vs veh, PPFIA1 / RFU, MAT2A / Fold change vs veh, MAT2A / RFU, CCT5 / Fold change vs veh, CCT5 / RFU, WDR92 / Fold change vs veh, WDR92 / RFU, CUX1 / Fold change vs veh, CUX1 / RFU, TTC7A / Fold change vs veh, TTC7A / RFU, TMEM135 / Fold change vs veh, TMEM135 / RFU, DEPTOR / Fold change vs veh, DEPTOR / RFU, CPM / Fold change vs veh, CPM / RFU, DNAJB6 / Fold change vs veh, DNAJB6 / RFU, CACNA2D3 / Fold change vs veh, CACNA2D3 / RFU, DTX4 / Fold change vs veh, DTX4 / RFU, TFCP2 / Fold change vs veh, TFCP2 / RFU, GMCL1 /// GMCL1P1 / Fold change vs veh, GMCL1 /// GMCL1P1 / RFU, AEBP2 / Fold change vs veh, AEBP2 / RFU, SNHG1 /// SNORD22 /// SNORD25 /// SNORD26 /// SNORD27 /// SNORD28 /// SNORD29 /// SNORD31 / Fold change vs veh, SNHG1 /// SNORD22 /// SNORD25 /// SNORD26 /// SNORD27 /// SNORD28 /// SNORD29 /// SNORD31 / Fold change (Aza/veh), C12orf56 (ProbeSet 11735607_a_at) / Fold change (ACY-1035/veh), C12orf56 (ProbeSet 11735607_a_at) / Fold change (Aza/veh), FGFR1OP (ProbeSet 11751329_s_at) / Fold change (ACY-1035/veh), FGFR1OP (ProbeSet 11751329_s_at) / Fold change (Aza/veh), VPS36 (ProbeSet 11739960_a_at) / Fold change (ACY-1035/veh), VPS36 (ProbeSet 11739960_a_at) / RFU SYPL1 (11715823_x_at) / Fold change /veh SYPL1 (11715823_x_at) / RFU IGFBP7 (11715501_s_at) / Fold change /veh IGFBP7 (11715501_s_at) / RFU REEP3 (11722064_at) / Fold change /veh REEP3 (11722064_at) / RFU IGLL1 (11728026_x_at) / Fold change /veh IGLL1 (11728026_x_at): dose or concentration left out as unconfirmed
Settings: ProbeSet 11725100_s_at; LIST B

Nc1ncn([C@@H]2O[C@H](CO)[C@@H](O)[C@H]2O)c(=O)n1 [azacitidine]
Fold change vs veh, ESF1: 0.96

From PMC5218480 (PLoS ONE, 2017)
